Data on 14 compounds can be found in patent US8288380B2, “Thiophenediamine derivative having urea structure” (Santen Pharmaceutical Co., Ltd., priority 2008, dated 2012).

In assay [1] the test system is HDAC (HeLa nuclear extract). Description: Test for evaluation of HDAC inhibitory activity (HDAC Fluorimetric Assay/Drug Discovery Kit, Biomol). Type of assay: biochemical. The settings on record: final concentration of the test compound 30 μM, values more than 100% shown as 100%. The protocol: Using HDAC Fluorimetric Assay/Drug Discovery Kit (manufactured by Biomol), HDAC inhibitory activity of the present compounds was measured according to the protocol included with the kit. The kit contains Buffer, HeLa nuclear extract (includes HDAC), Substrate, Developer and Trichostatin A HDAC inhibitor).
A test compound was dissolved in dimethyl sulfoxide (hereinafter referred to as “DMSO”), whereby a 2 mg/mL solution was prepared. Then, the resulting solution was diluted with Buffer containing 5% DMSO, whereby a 150 μM test compound solution was prepared.
1) To a 384-well culture plate, the test compound solution was added in an amount of 2 μL per well.
2) HeLa nuclear extract was diluted 30-fold with Buffer. The resulting solution was added in an amount of 3 μL per well, and then incubation was performed at 37° C. for 2 hours.
3) Substrate was diluted 500-fold with Buffer. The resulting solution was added in an amount of 5 μL per well (the final concentration of the test compound was 30 μM), and then incubation was performed at 37° C. for 10 minutes.
4) Developer was diluted 20-fold with Buffer and Trichostatin A (2 μM) was added to it. The resulting solution was added in an amount of 10 μL per well, and then incubation was performed at room temperature for 15 minutes.
5) The fluorescence intensity of each well was measured using multilabel counter ARVO (manufactured by Wallac) with excitation at 360 nm and emission at 460 nm.
6) A control data was obtained from the same experiment except that Buffer containing 5% DMSO was added instead of the test compound solution as the above-mentioned procedure from 1) to 5).
7) A blank data was obtained from the same experiment except that Buffer containing 5% DMSO was added instead of the test compound solution and that Buffer was added instead of Hela nuclear extract as the above-mentioned procedure from 1) to 5).
Enzyme inhibitory rate (%) was calculated using the following equation. (Enzyme Inhibitory Rate(%))=100×[1−{(Fluorescence Intensity of Test Compound Solution)−(Florescence Intensity of Blank)}/{(Florescence Intensity of Control)−(Florescence Intensity of Blank)}] (Test Results)

The subject of assay [2] is human trabecular meshwork cell line (TM-1 cells). The experiment in a line: Test for evaluation of effect of morphological change on trabecular meshwork cells (cell shape index, CSI). Type of assay: cell-based. Particulars: final concentration 10 μM, 24 hours incubation, Control 0.694, lower CSI indicates greater morphological changes. The text has this: Further, as a result of studying an effect morphological change of the present compound on trabecular meshwork cells, i.e., an effect of morphological change of the present compound on trabecular meshwork cells in an evaluation system using the cell shape index (hereinafter referred to as “CSI”) reported in The Journal of Clinical Investigation, 103, 1141-1150 (1999) as an index, it was found the present compound has an excellent effect of morphological change on trabecular meshwork cells.
As a method for evaluating a cellular morphological change, an evaluation system using the cell shape index (hereinafter referred to as “CSI”) as an index has been reported in The Journal of Clinical Investigation, 103, 1141-1150 (1999). Therefore, according to the method described in the above document, an effect of morphological change of the present compounds on trabecular meshwork cells was evaluated.
A human trabecular meshwork cell line (hereinafter referred to as “TM-1 cells”) reported in Investigative Ophthalmology & Visual Science, 43, 151-161 (2002) was used.
Culture medium 1: A reagent was prepared by adding fetal bovine serum (10%), L-glutamine (2 mM), amphotericin B ([…]), and gentamicin (25 μg/mL) to Dulbecco's Modified Eagle Medium (hereinafter referred to as “D-MEM”).
Culture medium 2: A reagent was prepared by adding fetal bovine serum (3%), L-glutamine (2 mM), amphotericin B (2.5 μg/mL), and gentamicin (25 μg/mL) were added to D-MEM.
Cell staining liquid: A mixed liquid of Calcein-AM (16 μM) and Hoechst 33342 (40 μM) was prepared by diluting a Calcein-AM solution (cytoplasmic staining reagent, manufactured by Dojindo Laboratories) and a Hoechst 33342 solution (nuclear staining reagent, manufactured by Dojindo Laboratories) with D-MEM containing L-glutamine (2 mM), amphotericin B (2.5 μg/mL), and gentamicin (25 μg/mL).
TM-1 cells subcultured at 37° C. in a 8% carbon dioxide gas atmosphere were treated with a trypsin/EDTA solution (0.05% trypsin and 0.53 mM tetrasodium ethylenediaminetetraacetate) at 24 hours before performing a drug treatment mentioned below and seeded on a 96-well culture plate. The culture medium 1 was used for the subculture of the cells. The culture medium 2 was used for the cell culture after seeding the cells on the plate.
A test compound was dissolved in DMSO, whereby a 5 mM solution was prepared. Then, the resulting solution was diluted with the culture medium 2, whereby a 200 μM test compound solution was prepared.
It has been reported that Y-27632 which is a Rho kinase inhibitor induces a morphological change in trabecular meshwork cells in Investigative Ophthalmology & Visual Science, 42, 137-144 (2001). Therefore, Y-27632 (produced according to the method described in WO 90/05723) was used as a positive control, and dissolved in DMSO in the same manner as the test compound, whereby a 5 mM solution was prepared, and then, the resulting solution was diluted with the culture medium 2, whereby a 200 μM positive control compound solution was prepared.
1) To a 96-well culture plate, a solution of TM-1 cells adjusted to a cell density of […] was added in an amount of 95 μL (1.5×10^4 cells) per well.
2) Incubation was performed at 37° C. in a 8% carbon dioxide gas atmosphere for 24 hours.
3) The test compound solution or positive control compound solution was added in an amount of 5 μL per well (the final concentration of the test compound or positive control compound was 10 μM). As a control, the culture medium 2 containing DMSO (4%) was added in an amount of 5 μL per well.
4) Incubation was performed at 37° C. in a 8% carbon dioxide gas atmosphere for 24 hours.
5) The cell staining liquid was added in an amount of 10 μL per well.
6) Incubation was performed at 37° C. in a 8% carbon dioxide gas atmosphere for 1 hour to stain the cells.
7) A 37% formaldehyde solution was added in an amount of 10 μL per well.
8) Incubation was performed at room temperature for 1 hour to fix the cells. […]

On to `CN(C)CCN(Cc1ccc(C(=O)Nc2cscc2N)nc1)C(=O)Nc1ccc2c(c1)OCCO2` [Compound No. 1-1, N-(4-Aminothiophen-3-yl)-5-[3-(2,3-dihydrobenzo[1,4]dioxin-6-yl)-1-(2-dimethylaminoethyl)ureidomethyl]pyridine-2-carboxylic acid amide], for which the “Enzyme Inhibitory Rate (%)” value in assay [1] is 97%. The same compound registered a CSI in assay [2] of 0.527. In the same order, the values of `CN(C)CCN(Cc1ccc(C(=O)Nc2cscc2N)nc1)C(=O)Nc1ccsc1` [Compound No. 1-7, N-(4-Aminothiophen-3-yl)-5-[1-(2-dimethylaminoethyl)-3-(thiophen-3-yl)ureidomethyl]pyridine-2-carboxylic acid amide] are 100% and 0.523. In the same order, the values of `CN(C)CCN(Cc1ccc(C(=O)Nc2cscc2N)nc1)C(=O)NCCc1ccccc1` [Compound No. 1-8, N-(4-Aminothiophen-3-yl)-5-[1-(2-dimethylaminoethyl)-3-phenethylureidomethyl]pyridine-2-carboxylic acid amide] are 96% and 0.548. In the case of `CN(C)CCN(Cc1ccc(C(=O)Nc2cscc2N)nc1)C(=O)Nc1ccc(F)c(F)c1` [Compound No. 1-18, N-(4-Aminothiophen-3-yl)-5-[3-(3,4-difluorophenyl)-1-(2-dimethylaminoethyl)ureidomethyl]pyridine-2-carboxylic acid amide], the “Enzyme Inhibitory Rate (%)” value in assay [1] turned out to be 97%. Moreover, in assay [2], the CSI came out at 0.519. For `CN(C)CCCN(Cc1ccc(C(=O)Nc2cscc2N)nc1)C(=O)Nc1ccsc1` [Compound No. 1-24, N-(4-Aminothiophen-3-yl)-5-[1-(3-dimethylaminopropyl)-3-(thiophen-3-yl)ureidomethyl]pyridine-2-carboxylic acid amide], the “Enzyme Inhibitory Rate (%)” value in assay [1] amounted to 100%. For the same compound, the CSI in assay [2] is 0.509. In the case of `Nc1cscc1NC(=O)c1ccc(CN(CCCN2CCOCC2)C(=O)NC2CCCC2)cn1` [Compound No. 1-34, N-(4-Aminothiophen-3-yl)-5-[3-cyclopentyl-1-[3-(morpholin-4-yl)propyl]ureidomethyl]pyridine-2-carboxylic acid amide], in assay [1], the “Enzyme Inhibitory Rate (%)” value is listed as 97%. The same compound displayed a CSI in assay [2] of 0.516. For `CC(C)NC(=O)N(CCCN1CCN(C)CC1)Cc1ccc(C(=O)Nc2cscc2N)nc1` [Compound No. 1-56, N-(4-Aminothiophen-3-yl)-5-[3-isopropyl-1-[3-(4-methylpiperazin-1-yl)propyl]ureidomethyl]pyridine-2-carboxylic acid amide], in that order: 97% and 0.422.

In the case of `Nc1cscc1NC(=O)c1ccc(CN(CCCCN2CCOCC2)C(=O)NCCc2ccccc2)cn1` [Compound No. 1-59, N-(4-Aminothiophen-3-yl)-5-[1-[4-(morpholin-4-yl)butyl]-3-phenethylureidomethyl]pyridine-2-carboxylic acid amide], the “Enzyme Inhibitory Rate (%)” value in assay [1] came to 97%. Also, the CSI in assay [2] was 0.500. Regarding `Nc1cscc1NC(=O)c1ccc(CN(CCN2CCCC2)C(=O)NC2CCCC2)cn1` [Compound No. 1-71, N-(4-Aminothiophen-3-yl)-5-[3-cyclopentyl-1-[2-(pyrrolidin-1-yl)ethyl]ureidomethyl]pyridine-2-carboxylic acid amide], the “Enzyme Inhibitory Rate (%)” value in assay [1] is recorded as 100%. Besides, in assay [2], the CSI amounted to 0.481. As to `CN1CCN(CCN(Cc2ccc(C(=O)Nc3cscc3N)nc2)C(=O)NCCc2ccc3c(c2)OCO3)CC1` [Compound No. 1-77, N-(4-Aminothiophen-3-yl)-5-[2-[3-(benzo[1,3]dioxol-5-yl)]ethyl-1-[2-(4-methylpiperazin-1-yl)ethyl]ureidomethyl]pyridine-2-carboxylic acid amide], the “Enzyme Inhibitory Rate (%)” value in assay [1] was determined as 100%. This compound yielded a CSI in assay [2] of 0.515.

For the compound `CCOC(=O)CNC(=O)N(CCCN1CCOCC1)Cc1ccc(C(=O)Nc2cscc2N)nc1` [Compound No. 1-88, N-(4-Aminothiophen-3-yl)-5-[3-ethoxycarbonylmethyl-1-[3-(morpholin-4-yl)propyl]ureidomethyl]pyridine-2-carboxylic acid amide], in assay [1], the “Enzyme Inhibitory Rate (%)” value is recorded as 95%. Also, in assay [2], the CSI turned out to be 0.539. For `CN(C)CCN(Cc1ccc(C(=O)Nc2cscc2N)nc1)C(=O)Nc1nccs1` [Compound No. 1-103, N-(4-Aminothiophen-3-yl)-5-[1-(2-dimethylaminoethyl)-3-(thiazol-2-yl)ureidomethyl]pyridine-2-carboxylic acid amide], in that order: 97% and 0.496.

Take `CN(C)CCN(Cc1ccc(C(=O)Nc2cscc2N)nc1)C(N)=O` [Compound No. 1-104, N-(4-Aminothiophen-3-yl)-5-[1-(2-dimethylaminoethyl)ureidomethyl]pyridine-2-carboxylic acid amide]: the “Enzyme Inhibitory Rate (%)” value in assay [1] is 97%. In assay [2], this compound showed a CSI of 0.505. `C[C@@H](N)[C@H]1CC[C@H](C(=O)Nc2ccncc2)CC1` [Y-27632, reference compound] came in with a CSI in assay [2] of 0.627.
